Laboratory results published in US7138361B2, “Herbicidal heterocycles” (E. I. du Pont de Nemours and Company, priority 2000, dated 2006).

Columns and labels:
Experiment in all cases: Test C preemergence
Type in all cases: in vivo
[1] = system: bermudagrass (Cynodon dactylon); conditions: for Plant response rating (0 to 100 where 0 is no effect and 100 is complete control), Bermudagrass: Rate 250 g/ha, visual evaluation after 12 to 14 days
Outline: (§1)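 Seeds are planted and treated before emergence; for the postemergence test, plants at 1- to 4-leaf stage (2–18 cm) receive the same formulation, a solvent blend containing surfactant. Plants stay in the greenhouse 12–14 days, then response is scored visually from 0 (none) to 100 (complete control).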

[2] = system: morningglory (Ipomoea hederacea); conditions: for Plant response rating (0 to 100), Morningglory: Rate 250 g/ha, visual evaluation after 12 to 14 days
Outline: as §1

[3] = system: giant foxtail (Setaria faberii); conditions: for Plant response rating (0 to 100), Foxtail, Giant: Rate 250 g/ha, visual evaluation after 12 to 14 days
Outline: as §1

[4] = system: lambsquarters (Chenopodium album); conditions: for Plant response rating (0 to 100), Lambsquarters: Rate 250 g/ha, visual evaluation after 12 to 14 days
Outline: as §1

corn (Zea mays) = conditions: for Plant response rating (0 to 100), Corn: Rate 250 g/ha, visual evaluation after 12 to 14 days
Outline: as §1

kochia (Kochia scoparia) = system: kochia (Kochia scoparia)
Outline: as §1

[5] = system: Surinam grass (Brachiaria decumbens); conditions: for Plant response rating (0 to 100), Surinam grass: Rate 250 g/ha, visual evaluation after 12 to 14 days
Outline: as §1

[6] = system: johnsongrass (Sorghum halepense); conditions: for Plant response rating (0 to 100), Johnsongrass: Rate 250 g/ha, visual evaluation after 12 to 14 days
Outline: as §1

[7] = system: crabgrass (Digitaria sanguinalis); conditions: for Plant response rating (0 to 100), Crabgrass: Rate 250 g/ha, visual evaluation after 12 to 14 days
Outline: as §1

[8] = system: velvetleaf (Abutilon theophrasti); conditions: for Plant response rating (0 to 100), Velvetleaf: Rate 250 g/ha, visual evaluation after 12 to 14 days
Outline: as §1

[9] = system: cocklebur (Xanthium strumarium); conditions: for Plant response rating (0 to 100), Cocklebur: Rate 250 g/ha, visual evaluation after 12 to 14 days
Outline: as §1

Nightshade [10] = system: Nightshade
[11] = system: goosegrass (Eleusine indica); conditions: for Plant response rating (0 to 100), Goosegrass: Rate 250 g/ha, visual evaluation after 12 to 14 days
Outline: as §1

[12] = system: pigweed (Amaranthus retroflexus); conditions: for Plant response rating (0 to 100), Pigweed: Rate 250 g/ha, visual evaluation after 12 to 14 days
Outline: as §1

[13] = system: yellow nutsedge (Cyperus esculentus); conditions: for Plant response rating (0 to 100), Nutsedge: Rate 250 g/ha, visual evaluation after 12 to 14 days
Outline: as §1

[14] = system: woolly cupgrass (Eriochloa villosa); conditions: for Plant response rating (0 to 100), Cupgrass, Woolly: Rate 250 g/ha, visual evaluation after 12 to 14 days
Outline: as §1

Sunflower = system: Sunflower
soybean (Glycine max) = conditions: for Plant response rating (0 to 100), Soybean: Rate 250 g/ha, visual evaluation after 12 to 14 days
Outline: as §1

[15] = system: common ragweed (Ambrosia elatior)
Outline: as §1

Nightshade [16] = conditions: Rate 250 g/ha, visual evaluation after 12 to 14 days
[17] = Preemergence, Rate 500 g/ha, scale 0 to 100
[18] = Rate 62 g/ha, scale 0 to 100, 0 no effect, 100 complete control
[19] = preemergence, Rate 125 g/ha, scale 0 to 100, 0 no effect, 100 complete control
[20] = preemergence, Rate 250 g/ha, visual evaluation after 12 to 14 days
[21] = Rate 125 g/ha, scale 0 to 100, 0 no effect, 100 complete control

O=C1C(n2ccc(C3CC3)n2)CCN1c1cccc(C(F)(F)F)c1 (stereo not drawn) [Compound 8]
Plant response rating, Bermudagrass [1, 17]: 100
Plant response rating, Bermudagrass [1, 18]: 0
Plant response rating (0 to 100 where 0 is no effect and 100 is complete control), Bermudagrass ([1]; preemergence): 70
Plant response rating, Bermudagrass [1, 19]: 70
Plant response rating, Morningglory [2, 17]: 30
Plant response rating, Morningglory [2, 18]: 20
Plant response rating (0 to 100), Morningglory ([2]; preemergence): 30
Plant response rating, Morningglory [2, 19]: 30
Plant response rating, Foxtail, Giant [3, 17]: 100
Plant response rating, Foxtail, Giant [3, 18]: 0
Plant response rating (0 to 100), Foxtail, Giant ([3]; preemergence): 90
Plant response rating, Foxtail, Giant [3, 19]: 20
Plant response rating, Lambsquarters [4, 17]: 100
Plant response rating, Lambsquarters [4, 18]: 100
Plant response rating (0 to 100), Lambsquarters ([4]; preemergence): 100
Plant response rating, Lambsquarters [4, 19]: 100
Plant response rating, Corn (corn (Zea mays); [17]): 0
Plant response rating, Corn (corn (Zea mays); [18]): 0
Plant response rating (0 to 100), Corn (corn (Zea mays); preemergence): 0
Plant response rating, Corn (corn (Zea mays); [19]): 0
Plant response rating, Kochia (kochia (Kochia scoparia); [17]): 70
Plant response rating, Kochia (kochia (Kochia scoparia); [18]): 0
Plant response rating (0 to 100), Kochia (kochia (Kochia scoparia); [20]): 20
Plant response rating, Kochia (kochia (Kochia scoparia); [19]): 0
Plant response rating, Surinam grass [5, 17]: 60
Plant response rating, Surinam grass [5, 18]: 0
Plant response rating (0 to 100), Surinam grass ([5]; preemergence): 50
Plant response rating, Surinam grass [5, 19]: 0
Plant response rating, Johnsongrass [6, 17]: 0
Plant response rating, Johnsongrass [6, 18]: 0
Plant response rating (0 to 100), Johnsongrass ([6]; preemergence): 0
Plant response rating, Johnsongrass [6, 19]: 0
Plant response rating, Crabgrass [7, 17]: 100
Plant response rating, Crabgrass [7, 18]: 70
Plant response rating (0 to 100), Crabgrass ([7]; preemergence): 90
Plant response rating, Crabgrass [7, 19]: 70
Plant response rating, Velvetleaf [8, 17]: 20
Plant response rating, Velvetleaf [8, 18]: 0
Plant response rating (0 to 100), Velvetleaf ([8]; preemergence): 20
Plant response rating, Velvetleaf [8, 19]: 0
Plant response rating, Cocklebur [9, 17]: 0
Plant response rating, Cocklebur [9, 18]: 0
Plant response rating (0 to 100), Cocklebur ([9]; preemergence): 0
Plant response rating, Cocklebur [9, 19]: 0
Plant response rating, Nightshade (Nightshade [10]; [18]): 0
Plant response rating, Nightshade (Nightshade [10]; [21]): 0
Plant response rating, Nightshade (Nightshade [10]; Rate 500 g/ha, scale 0 to 100): 0
Plant response rating, Goosegrass [11, 17]: 100
Plant response rating, Goosegrass [11, 18]: 0
Plant response rating (0 to 100), Goosegrass ([11]; preemergence): 90
Plant response rating, Goosegrass [11, 19]: 20
Plant response rating, Pigweed [12, 17]: 100
Plant response rating, Pigweed [12, 18]: 20
Plant response rating (0 to 100), Pigweed ([12]; preemergence): 100
Plant response rating, Pigweed [12, 19]: 80
Plant response rating, Nutsedge [13, 17]: 0
Plant response rating, Nutsedge [13, 18]: 0
Plant response rating (0 to 100), Nutsedge ([13]; preemergence): 0
Plant response rating, Nutsedge [13, 19]: 0
Plant response rating, Cupgrass, Woolly [14, 17]: 80
Plant response rating, Cupgrass, Woolly [14, 18]: 0
Plant response rating (0 to 100), Cupgrass, Woolly ([14]; preemergence): 50
Plant response rating, Cupgrass, Woolly [14, 19]: 40
Plant response rating, Sunflower (Sunflower; [18]): 0
Plant response rating, Sunflower (Sunflower; Rate 500 g/ha, scale 0 to 100): 30
Plant response rating, Soybean (soybean (Glycine max); [17]): 20
Plant response rating, Soybean (soybean (Glycine max); [18]): 0
Plant response rating (0 to 100), Soybean (soybean (Glycine max); preemergence): 20
Plant response rating, Soybean (soybean (Glycine max); [19]): 0
Plant response rating, Ragweed, Common [15, 17]: 80
Plant response rating, Ragweed, Common [15, 18]: 0
Plant response rating, Ragweed, Common [15, 19]: 0
Plant response rating (0 to 100), Nightshade (Nightshade [16]): 0

CCC(C)c1ccn(C2SCN(c3cccc(OC(F)(F)F)c3)C2=O)n1 (stereo not drawn) [Compound 32]
Plant response rating, Bermudagrass [1, 17]: 100
Plant response rating, Bermudagrass [1, 18]: 50
Plant response rating (0 to 100 where 0 is no effect and 100 is complete control), Bermudagrass ([1]; preemergence): 100
Plant response rating, Bermudagrass [1, 19]: 90
Plant response rating, Morningglory [2, 17]: 80
Plant response rating, Morningglory [2, 18]: 30
Plant response rating (0 to 100), Morningglory ([2]; preemergence): 50
Plant response rating, Morningglory [2, 19]: 40
Plant response rating, Foxtail, Giant [3, 17]: 100
Plant response rating, Foxtail, Giant [3, 18]: 70
Plant response rating (0 to 100), Foxtail, Giant ([3]; preemergence): 100
Plant response rating, Foxtail, Giant [3, 19]: 50
Plant response rating, Lambsquarters [4, 17]: 100
Plant response rating, Lambsquarters [4, 18]: 100
Plant response rating (0 to 100), Lambsquarters ([4]; preemergence): 100
Plant response rating, Lambsquarters [4, 19]: 100
Plant response rating, Corn (corn (Zea mays); [17]): 60
Plant response rating, Corn (corn (Zea mays); [18]): 40
Plant response rating (0 to 100), Corn (corn (Zea mays); preemergence): 50
Plant response rating, Corn (corn (Zea mays); [19]): 50
Plant response rating, Surinam grass [5, 17]: 90
Plant response rating, Surinam grass [5, 18]: 70
Plant response rating (0 to 100), Surinam grass ([5]; preemergence): 80
Plant response rating, Surinam grass [5, 19]: 80
Plant response rating, Johnsongrass [6, 17]: 90
Plant response rating, Johnsongrass [6, 18]: 30
Plant response rating (0 to 100), Johnsongrass ([6]; preemergence): 90
Plant response rating, Johnsongrass [6, 19]: 40
Plant response rating, Crabgrass [7, 17]: 100
Plant response rating, Crabgrass [7, 18]: 100
Plant response rating (0 to 100), Crabgrass ([7]; preemergence): 100
Plant response rating, Crabgrass [7, 19]: 100
Plant response rating, Velvetleaf [8, 17]: 40
Plant response rating, Velvetleaf [8, 18]: 0
Plant response rating (0 to 100), Velvetleaf ([8]; preemergence): 0
Plant response rating, Velvetleaf [8, 19]: 0
Plant response rating, Cocklebur [9, 17]: 0
Plant response rating, Cocklebur [9, 18]: 0
Plant response rating (0 to 100), Cocklebur ([9]; preemergence): 0
Plant response rating, Nightshade (Nightshade [10]; [18]): 50
Plant response rating, Nightshade (Nightshade [10]; [21]): 50
Plant response rating, Nightshade (Nightshade [10]; Rate 500 g/ha, scale 0 to 100): 100
Plant response rating, Goosegrass [11, 17]: 100
Plant response rating, Goosegrass [11, 18]: 100
Plant response rating (0 to 100), Goosegrass ([11]; preemergence): 100
Plant response rating, Goosegrass [11, 19]: 100
Plant response rating, Pigweed [12, 17]: 80
Plant response rating, Pigweed [12, 18]: 70
Plant response rating (0 to 100), Pigweed ([12]; preemergence): 70
Plant response rating, Pigweed [12, 19]: 20
Plant response rating, Nutsedge [13, 17]: 60
Plant response rating (0 to 100), Nutsedge ([13]; preemergence): 50
Plant response rating, Nutsedge [13, 19]: 50
Plant response rating, Cupgrass, Woolly [14, 17]: 90
Plant response rating, Cupgrass, Woolly [14, 18]: 60
Plant response rating (0 to 100), Cupgrass, Woolly ([14]; preemergence): 90
Plant response rating, Cupgrass, Woolly [14, 19]: 70
Plant response rating, Sunflower (Sunflower; [18]): 0
Plant response rating, Sunflower (Sunflower; Rate 500 g/ha, scale 0 to 100): 70
Plant response rating, Soybean (soybean (Glycine max); [17]): 60
Plant response rating, Soybean (soybean (Glycine max); [18]): 50
Plant response rating (0 to 100), Soybean (soybean (Glycine max); preemergence): 60
Plant response rating, Soybean (soybean (Glycine max); [19]): 50
Plant response rating, Ragweed, Common [15, 17]: 100
Plant response rating, Ragweed, Common [15, 18]: 0
Plant response rating (0 to 100), Ragweed, Common [15, 20]: 90
Plant response rating, Ragweed, Common [15, 19]: 0
Plant response rating (0 to 100), Nightshade (Nightshade [16]): 90
